From US8506943B2, “Cyclohexylethyl carboxylic acid ester compositions and method for using the same for reducing malodors” (International Flavors & Fragrances Inc., priority 2009, dated 2013)
Marks after values point to notes of the source that are not given here.

What was measured:
Parameters in all cases: species or system human
[1] = Sweat malodor model (IVA), number of panelists ranking more intense (Example VI); details: for rank of the odor intensity (number of panelists who ranked the more intense): S vs R
Text: (§1) Establishment of a Model of Sweat Malodor: It is known that the perspirative malodors of human body, particularly sweat, are associated with the production of several unpleasant smelling organic acids, particularly isovaleric acid (“IVA”). The commercial sample of this malodorous material (commercially available at Sigma-Aldrich Inc.) was thus used as a model compound to assess the effectiveness of sweat malodor counteractants.
(§2) Preparation of Test Samples: The VEILEX™ mixtures (VEILEX™ I, VEILEX™ II, and VEILEX™ III, commercially available from IFF) and the enantiomeric compounds of the present invention (all with optical purity over 80% ee, synthesized as above) were evaluated for sweat malodor counteracting effectiveness. Different concentrations of VEILEX™ mixtures and their enantiomeric counterparts were used based on the priori usage levels. Additionally, the overall intensity of 1-cyclohexylethanol (1% in diethyl phthalate) was noticeably greater than the other two compounds, a higher concentration of IVA (2% in diethyl phthalate) was therefore used for the test.
(§3) Testing Procedure: A cyclohexylethyl carboxylic acid ester compound (1 g, a racemate or enantiomer) and IVA (1 g, 1-2%) were placed in two 1-ounce jars separately, which were both placed in a 1-gallon jar and capped for 24 hours to allow for the headspace saturation prior to the test. Each set of three test samples (i.e., three 1-gallone jars containing IVA and, respectively, a racemate and each of the two enantiomers) was presented in a blind, random order to internal panelists (consisting of trained females having a mean age of 40 years).
(§4) The panelists were instructed to take the steps of i) uncap a first jar; ii) place their noses immediately above the opening; iii) take short sniffs for 2-3 seconds; iv) cap the jar; v) repeat the steps for the other two jars in the same set; and vi) provide a rank of the odor intensity for a set of three jars using the intensity scales of 1 to 5, where 1 represents the “Least Intense” and 5 represents the “Most Intense”. The ranks of the odor intensity were then statistically analyzed using SPSS 15.0 for Windows. Freidman's non-parametric tests were used to analyze the ranked intensity for each test sample. Post hoc pair-wise comparisons were only conducted when the overall Chi-square omnibus test was statistically significant (p<0.05).
(§5) Testing Procedure: Test samples were prepared the same as above. The same procedure was carried out except the ranks of the odor intensity were recorded based on the numbers of the panelists who ranked the more intense.

[2] = Mold/mildew malodor model, number of panelists ranking more intense (Example VI); details: for rank of the odor intensity (number of panelists who ranked the more intense): Mold/Mildew, S vs R
Experimental: as §3, §4
(§6) Establishment of Mold/Mildew and Bathroom Malodor Models: In addition to the sweat model established as above, the malodor models of mold/mildew and bathroom were prepared based on applicant's proprietary formulations for assessing the effectiveness of mold/mildew and bathroom malodor counteractants.
as §5

[3] = Sweat malodor model (IVA), panel mean rank of odor intensity (Example V); details: for mean rank of the odor intensity: 1 = least intense, 5 = most intense, set of racemate, S and R
Text: as §1, §2, §3, §4

[4] = Bathroom malodor model, number of panelists ranking more intense (Example VI); details: S vs R
Experimental: as §3, §4, §6, §5

[5] = Mold/mildew malodor intensity on Labeled Magnitude Scale, concentration series (Example VII); details: for Malodor Intensity: LMS mean, 0-100; for % MOR (percent malodor reduction): vs Malodor Alone
Experimental: (§7) Determination of an Effective Concentration of (1R)-1-cyclohexylethyl butyrate: To further identify an effective concentration of (1R)-1-cyclohexylethyl butyrate in counteracting mold/mildew malodor, (1R)-1-cyclohexylethyl butyrate was prepared at a series of concentrations, ranging from 0.05% to 10% in diethyl phthalate, with corresponding vapor phase concentrations ranging from about 0.3 to about 60 μg per liter of air space.
Testing Procedure: The same procedure was carried out as in Example VI to evaluate the effectiveness of different concentrations of (1R)-1-cyclohexylethyl butyrate (“VEILEX™ 1R”) in counteracting mold/mildew malodor. The odor intensity was rated using Labeled Magnitude Scale (LMS) [Green, et al., Chemical Senses, 21(3), June 1996, 323-334]. Mean (“Malodor Intensity”) and standard error of the mean (“SE”, ±) were obtained, where 0 represents “No Sensation” and 100 represents “The Strongest Imaginable Malodor Sensation”. Percent malodor reduction (“% MOR”) represents the reduction in mean malodor intensity of the negative control (Malodor Alone) in the presence of an enantiomeric cyclohexylethyl carboxylic acid ester.

[6] = Sweat malodor (1% IVA) intensity on Labeled Magnitude Scale, concentration series (Example VIII); details: for Malodor Intensity: LMS mean, 0-100; for % MOR (percent malodor reduction): vs Malodor Alone
Experimental: as §7, with “(1S)-1-cyclohexylethyl acetate:” for “(1R)-1-cyclohexylethyl butyrate:”, “(1S)-1-cyclohexylethyl acetate” for “(1R)-1-cyclohexylethyl butyrate”, “sweat” for “mold/mildew”, “5%” for “10%”, “1.5” for “0.3”, “150” for “60”
Testing Procedure: The same procedures were carried out as in Examples V and VII to evaluate the effectiveness of different concentrations of (1S)-1-cyclohexylethyl acetate (“VEILEX™ 2S”) in counteracting sweat malodor modeled by 1% of IVA.

[7] = compared with enantiomeric counterpart

## CCCC(=O)O[C@H](C)C1CCCCC1 [1-cyclohexylethyl butyrate R, (1R)-1-cyclohexylethyl butyrate]
[1]; IVA (1%), test compound 5%
  rank of the odor intensity (number of panelists who ranked the more intense): 4
[2]; test compound 5%
  rank of the odor intensity (number of panelists who ranked the more intense): 5*
[2]; [7]
  effectiveness in counteracting mold/mildew malodor (in words): significantly and specifically effective in counteracting mold/mildew malodor
[3]; IVA (1%), test compound 5%
  mean rank of the odor intensity: 1.42
[4]; test compound 5%
  rank of the odor intensity (number of panelists who ranked the more intense): 13
[5]; 0.05%, 0.3 μg/L
  Malodor Intensity: 13.70
  % MOR (percent malodor reduction): 13%
[5]; 0.1%, 0.6 μg/L
  Malodor Intensity: 11.86
  % MOR (percent malodor reduction): 24%
[5]; 0.5%, 3 μg/L
  Malodor Intensity: 12.03
  % MOR (percent malodor reduction): 23%
[5]; 1%, 6 μg/L
  Malodor Intensity: 11.66
  % MOR (percent malodor reduction): 22%
[5]; 10%, 60 μg/L
  Malodor Intensity: 8.25
  % MOR (percent malodor reduction): 47%

## CC(=O)O[C@H](C)C1CCCCC1 [1-cyclohexylethyl acetate R, (R)-1-cyclohexylethyl acetate]
[1]; IVA (1%), test compound 2%
  rank of the odor intensity (number of panelists who ranked the more intense): 11
[2]; test compound 2%
  rank of the odor intensity (number of panelists who ranked the more intense): 11
[3]; IVA (1%), test compound 2%
  mean rank of the odor intensity: 2.46
[4]; test compound 2%
  rank of the odor intensity (number of panelists who ranked the more intense): 12

## C[C@H](O)C1CCCCC1 [1-cyclohexylethanol S, (S)-1-cyclohexylethanol]
[1]; IVA (2%), test compound 1%
  rank of the odor intensity (number of panelists who ranked the more intense): 7
[2]; test compound 1%
  rank of the odor intensity (number of panelists who ranked the more intense): 12
[3]; IVA (2%), test compound 1%
  mean rank of the odor intensity: 1.92
[4]; test compound 1%
  rank of the odor intensity (number of panelists who ranked the more intense): 12

## CC(O)C1CCCCC1 (racemic) [1-cyclohexylethanol M, 1-cyclohexylethanol, reference compound]
[3]; IVA (2%), test compound 1%
  mean rank of the odor intensity: 2.58

## CC(=O)O[C@@H](C)C1CCCCC1 [1-cyclohexylethyl acetate S, (1S)-1-cyclohexylethyl acetate]
[1]; IVA (1%), test compound 2%
  rank of the odor intensity (number of panelists who ranked the more intense): 2*
[1]; [7]
  effectiveness in counteracting sweat malodor (in words): significantly and specifically effective in counteracting sweat malodor
[2]; test compound 2%
  rank of the odor intensity (number of panelists who ranked the more intense): 14
[6]; 0.05%, 1.5 μg/L
  Malodor Intensity: 17.98
  % MOR (percent malodor reduction): 23%
[6]; 0.1%, 3 μg/L
  Malodor Intensity: 18.29
  % MOR (percent malodor reduction): 23%
[6]; 0.5%, 15 μg/L
  Malodor Intensity: 14.8
  % MOR (percent malodor reduction): 37%
[6]; 1%, 30 μg/L
  Malodor Intensity: 14.15
  % MOR (percent malodor reduction): 42%
[6]; 5%, 150 μg/L
  Malodor Intensity: 8.35
  % MOR (percent malodor reduction): 55%
[3]; IVA (1%), test compound 2%
  mean rank of the odor intensity: 1.38*
[3]; compared with racemate and R enantiomer
  effectiveness in counteracting sweat malodor (in words): particularly effective in counteracting sweat malodor
[4]; test compound 2%
  rank of the odor intensity (number of panelists who ranked the more intense): 13

## C[C@@H](O)C1CCCCC1 [1-cyclohexylethanol R, (R)-1-cyclohexylethanol]
[1]; IVA (2%), test compound 1%
  rank of the odor intensity (number of panelists who ranked the more intense): 5
[2]; test compound 1%
  rank of the odor intensity (number of panelists who ranked the more intense): 13
[3]; IVA (2%), test compound 1%
  mean rank of the odor intensity: 1.50
[4]; test compound 1%
  rank of the odor intensity (number of panelists who ranked the more intense): 13

## CCCC(=O)O[C@@H](C)C1CCCCC1 [1-cyclohexylethyl butyrate S, (S)-1-cyclohexylethyl butyrate]
[1]; IVA (1%), test compound 5%
  rank of the odor intensity (number of panelists who ranked the more intense): 8
[2]; test compound 5%
  rank of the odor intensity (number of panelists who ranked the more intense): 20
[3]; IVA (1%), test compound 5%
  mean rank of the odor intensity: 2.08
[4]; test compound 5%
  rank of the odor intensity (number of panelists who ranked the more intense): 12

## CCCC(=O)OC(C)C1CCCCC1 (racemic) [1-cyclohexylethyl butyrate M, 1-cyclohexylethyl butyrate, reference compound]
[3]; IVA (1%), test compound 5%
  mean rank of the odor intensity: 2.50

## CC(=O)OC(C)C1CCCCC1 (racemic) [1-cyclohexylethyl acetate M, 1-cyclohexylethyl acetate, reference compound]
[3]; IVA (1%), test compound 2%
  mean rank of the odor intensity: 2.15
